Values quoted from earlier work, collected in patent publication US12226415B2, “Methods and compositions for the treatment of hair loss” (Aneira Pharma Inc., priority 2019, dated 2025).
Each block holds one molecule with its values, some of them ahead of it.

Assays:
hair growth = conditions: for hair growth: McCarey et al. 2004
[1] = propylene glycol, methanol, ethanol and 2-propanol
human FP receptors = human FP receptors (Homo sapiens, UniProt P43088)
intraocular pressure = conditions: glaucomatous monkey eyes, Gagliuso et al. 2004
[2] = tested on: elevated intraocular pressure; conditions: some human glaucoma patients non-responsive to latanoprost, Gandolfi 2003
[3] = tested on: production of dihydrotestosterone (DHT); conditions: oral; including in the prostate gland and the scalp

human FP receptors, sequence (P43088 whole entry): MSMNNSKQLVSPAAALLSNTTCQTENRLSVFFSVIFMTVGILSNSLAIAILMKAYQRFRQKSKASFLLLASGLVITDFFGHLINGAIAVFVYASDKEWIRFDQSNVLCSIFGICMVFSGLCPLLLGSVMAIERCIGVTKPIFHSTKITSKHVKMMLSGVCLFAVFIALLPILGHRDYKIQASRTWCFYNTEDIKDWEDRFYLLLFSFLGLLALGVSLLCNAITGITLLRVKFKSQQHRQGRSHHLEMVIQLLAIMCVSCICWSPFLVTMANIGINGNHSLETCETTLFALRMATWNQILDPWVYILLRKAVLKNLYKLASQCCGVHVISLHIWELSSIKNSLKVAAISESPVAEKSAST

SMILES: CCCCCCCC(=O)CC[C@@H]1[C@@H](C/C=C\CCCC(=O)O)[C@@H](O)C[C@H]1O [uenoprostone free acid]
hair growth (hair growth): no hair growth

solubility (concentration that can be obtained) [1]: ≥ 5%
SMILES: CC(C)OC(=O)CCC/C=C\C[C@@H]1[C@@H](CC[C@@H](O)CCc2ccccc2)[C@H](O)C[C@@H]1O [latanoprost, isopropyl ester of 17-phenyl-13,14-dihydro prostaglandin F2a]

potency relative to PGF2α (human FP receptors): twice the potency of PGF2α
SMILES: O=C(O)CCC/C=C\C[C@@H]1[C@@H](CC[C@@H](O)CCc2ccccc2)[C@H](O)C[C@@H]1O [Latanoprost free acid]

SMILES: CCNC(=O)CCC/C=C\C[C@@H]1[C@@H](/C=C/[C@@H](O)CCc2ccccc2)[C@H](O)C[C@@H]1O [bimatoprost]
effect on elevated intraocular pressure in combination with latanoprost (intraocular pressure): additive
response in reducing elevated intraocular pressure [2]: responsive

SMILES: CC(C)(C)NC(=O)[C@H]1CC[C@H]2[C@@H]3CC[C@H]4NC(=O)C=C[C@]4(C)[C@H]3CC[C@]12C [finasteride, (1S,3aS,3bS,5aR,9aR,9bS,11aS)—N-tert-butyl-9a,11a-dimethyl-7-oxo-1,2,3,3a,3b,4,5,5a,6,9b,10,11-dodecahydroindeno[5,4-f]quinoline-1-carboxamide]
decrease of production of dihydrotestosterone (DHT) [3]: about 70%

SMILES: CCCCCCCC(=O)CC[C@@H]1[C@@H](C/C=C\CCCC(=O)OC(C)C)[C@@H](O)C[C@H]1O [Uenoprostone isopropyl ester]
hair growth (hair growth): no hair growth
incidence of iris pigmentation and eyelash changes (hair growth; two randomized clinical trials, 0.15%): Low incidence
